Laboratory results reported in patent US9738668B2.

Columns and labels:
Aβ-ABAD interaction = conditions: cited from earlier work
[1] = cited from earlier work
ABAD = assay type: biochemical
Experimental: Before the assay, all the assay components except SAAC were pre-incubated for 5 minutes, and the reaction started with the addition of SAAC into the reaction mix. The reaction was carried out for a total 6 minutes at room temperature under steady-state conditions, and the decrease of NADH absorbance at 340 nm was determined every 10 seconds. Kinetic data were analyzed by PRISM (Scitech, San Diego, Calif.) to determine IC50 values and Ki. One unit of enzyme activity was defined as that which converted 1.0 μmol of substrate to product per minute.

brain mitochondria = assay: Mitochondria swelling assay in response to Ca2+; design: species or system mice
Experimental: Brain from mice without white matter was used for mitochondrial isolation. Brain was homogenized in 9 ml of ice-cold EB buffer (1 mmol EDTA, 1-6 mg/ml BSA) using a Dounce homogenizer until no particles could be seen. Homogenates were centrifuged at 1300×g for 5 minutes. Supernatant from this fraction was carefully laid on top of a 15% PERCOLL solution (10 ml) and then centrifuged at 16000 RPM for 10 minutes. The pellet was carefully mixed with 9 ml of mitochondrial buffer (4.098% D-mannitol, 2.56% sucrose, 0.034% K2HPO4, pH 7.3-7.4) and 200 μl of 1% digitonin. After 5 minutes incubation on ice, the mixture was centrifuged at 8000 RPM for 10 minutes. Mitochondrial pellet was washed once with mitochondrial buffer. Subsequently, the mitochondrial pellet was resuspended in 100 μl of mitochondrial buffer and was used for further experiments.
A proper amount of mitochondria was resuspended into 1 ml swelling assay buffer (150 mM KCl, 2 mM KH2PO4, 10 mM HEPES, pH 7.4) and energized by 1 mM glutamate and 1 mM malate. Calcium at varying concentrations was added into the assay buffer to trigger mitochondrial swelling. Mitochondrial permeability transition was determined by studying the rate of change in absorbance at 540 nm via a spectrophotometer.
Given that the Compounds 4, 8 and 15 could inhibit ABAD activity, it was determined whether these same compounds could decrease mitochondrial permeability transition pore (mPTP) formation.

SK-N-SH cells [2] = assay: Mitochondrial cytochrome c oxidase (CcO) activity in Aβ-treated cells; assay type: cell-based
Experimental: SK-NSH cells were treated with 5 μM oligomer Aβ plus 1 μM of ABAD inhibitor; inhibitor alone; vehicle (VEH) without inhibitor; or Aβ alone. Forty-eight hour later, CcO activity (μmol protein mg^−1 min^−1) was measured in cell lysates.
The CcO activity was measured according to known methods (Du, et al. (2008) Nat. Med. 14:1097-105) with a cytochrome c oxidase kit (Sigma). In brief, SK-N-SH cells were incubated with ABAD inhibitor and oligomer Aβ for 48 hours. After washing the cells twice with PBS, the cells were collected and concentration was determined by the Bradford method. A suitable volume of cells and enzyme solution was added to 475 μl assay buffer. The reaction was triggered by the addition of 25 μl freshly prepared ferrocytochrome C substrate solution into the cuvette. Changes in OD550 nm were recorded immediately with an Amersham Biosciences ULTROSPECT 3100 pro spectrophotometer.
To assess the effect of ABAD inhibitor on Aft-induced mitochondrial respiratory function, CcO activity was determined.

SK-N-SH cells [3] = assay: ATP levels in Aβ-treated cells; assay type: cell-based
Experimental: Forty-eight hour later, ATP levels (μmol mg^−1 protein) were measured in cell lysates.
To determine the effect of ABAD inhibitors on Aβ-induced impairment in energy metabolism, ATP levels were measured. […] ATP levels were measured in the cell lysates. […] Therefore, ABAD inhibitors can block mitochondrial dysfunction mediated by Aβ.

[4] = Solubility in solvents during LC method development; assay type: physicochemical
Experimental: During the development of a detection method for analytes 4, 8 and 15, multiple solvents were tested to find the optimal mobile phase. […] Acetonitrile was selected for better peak shape and compatibility with serum/brain protein precipitation. Compounds 8 and 15 were chosen as IS, because of their structural similarity. Selected reaction monitoring (SRM) acquisitions were used for sensitivity and extended dynamic range. The cone voltage and collision energy were optimized for 4, 8 and 15 and the IS by continuously infusing a mixture of the two. The optimum cone voltage was 30V.

[5] = Pharmacokinetic study and BBB penetration, LC-MS/MS of plasma and brain; assay type: in vivo, C57BL6 mice; conditions: mice, intravenous 10 mg/kg
Experimental: Using the validated LCMS/MS method, blood and brain levels of 4, 8, and 15 were measured in male and female C57BL6 mice (8-10 week-old, weighing approximately 25-30 grams). The mice were housed in a room with controlled temperature (23±3° C.) and moisture level (55±15% relative humidity) and exposed to a controlled 12 hour light/12 hour dark cycle. They were allowed to access to food and water ad libitum. Mice were fasted for 6 hours with free access to water prior to the pharmacokinetic study. To determine the time course of compounds 4, 8, and 15 action in the brain, the plasma pharmacokinetics and BBB penetration capability of the inhibitors were investigated. In these experiments, compounds 4, 8, and 15 were administered to mice by intravenous injection at a dosage of 10 mg/kg. Blood and brain samples were collected from mouse at each time point (2, 5, 10, 30, 60, 120, 240, 360, 720, 1440, and 2880 minutes), a total of 11 time points. For plasma measurements, blood (approximately 500-800 μl) was collected via cardiac-puncture into tubes containing sodium heparin anti-coagulant. Plasma was separated via centrifugation (4° C., 3500 rpm, 10 minutes) and stored in −80° C. freezer. For qualitative confirmations of these compounds in CSF, samples were collected at 2 time points (240 and 1440 min) from five animals at each time point. At the time of measurement, frozen plasma samples were thawed at room temperature and vortexed thoroughly. The following quantities were estimated using non-compartmental calculations performed with WINNONLIN 5.2 (Pharsight, Sunnyvale, Calif.): the area under the plasma concentration-time curve during the period of observation (AUC0-τ); the area under the plasma concentration-time curve from zero to infinity (AUC0-∞); the maximum plasma concentration (Cmax); the time to reach Cmax (Tmax); and the half-life (t1/2).
The LC-MS/MS method described above was used for the determination of 4, 8 and 15 in plasma, brain, and CSF for pharmacokinetic study. Based on the initial concentration data, the pharmacokinetic parameters including the area under the plasma concentration-time curve during the period of observation (AUC0-t), the area under the plasma concentration-time curve from zero to infinity (AUC0-∞) the maximum plasma concentration (Cmax) the time to reach Cmax (Tmax) and the half-life (t1/2) are shown in Table 8.

Compound: Nc1c(/N=N/c2ccc(-c3ccc(/N=N/c4cc(S(=O)(=O)O)c5ccccc5c4N)cc3)cc2)cc(S(=O)(=O)O)c2ccccc12 [Congo red]
- inhibition of Aβ binding (Aβ-ABAD interaction): 100%
- cell permeability [1]: poor cell permeability

Compound: thioflavin T
- inhibition of Aβ binding (Aβ-ABAD interaction): ~20%

Compound: COc1ccc2nc(N[C@@H](c3ccc(F)cc3)P(=O)(OC)OC)sc2c1 [Compound 15, Dimethyl ((4-fluorophenyl) ((6-methoxybenzo[d]thiazol-2-yl)amino)methyl) phosphonate]
- inhibition of SAAC reduction by ABAD (ABAD; at 10 μM): did not inhibit
- inhibitory effect on SAAC reduction by ABAD (ABAD; at 100 or 400 μM): slight inhibitory effect
- calcium-mediated mitochondrial swelling (brain mitochondria; with calcium): antagonized calcium-mediated mitochondrial swelling
- mitochondrial swelling without calcium (brain mitochondria; without calcium): did not affect mitochondrial swelling
- CcO activity, inhibitor alone (SK-N-SH cells [2]; 1 μM inhibitor without Aβ): had no effect on CcO activity
- CcO activity (SK-N-SH cells [2]; 5 μM oligomer Aβ1-42 plus 1 μM inhibitor, 48 hours): reversed the Aβ-mediated decrease of CcO activity
- ATP levels (SK-N-SH cells [3]; 5 μM Aβ1-42 plus 1 μM inhibitor): rescued ATP levels
- ATP levels, inhibitor alone (SK-N-SH cells [3]; inhibitor without Aβ): comparable to cells treated with vehicle alone
- solubility in methanol or acetonitrile ([4]; methanol or acetonitrile): dissolved readily
- solubility in water ([4]; water): dissolved partially
- t1/2 ([5]; Brain): 11.4 h
- t1/2 ([5]; Plasma): 6.1 h

Compound: fentizole
- inhibitory activity (Aβ-ABAD interaction): exhibit inhibitory activity
